Assays:
KP1005 (CTX-M-14) = assay: Potentiation of aztreonam, strain KP1005; format: cell-based
ec308 (SHV-5) = assay: Potentiation of aztreonam, strain ec308; format: cell-based; conditions: minimum BLI concentration inhibiting growth with 4 μg/mL aztreonam
EC1010 (CMY-6) = format: cell-based
KPC-2 = KPC-2 (Klebsiella pneumoniae, UniProt Q9F663); assay: Inhibition of nitrocefin cleavage by purified KPC-2; format: biochemical; conditions: nitrocefin reporter substrate, purified enzyme; read-out: Ki (KPC-2, NCF)
KPC-2, sequence (Q9F663 25-293, looked up, species assumed): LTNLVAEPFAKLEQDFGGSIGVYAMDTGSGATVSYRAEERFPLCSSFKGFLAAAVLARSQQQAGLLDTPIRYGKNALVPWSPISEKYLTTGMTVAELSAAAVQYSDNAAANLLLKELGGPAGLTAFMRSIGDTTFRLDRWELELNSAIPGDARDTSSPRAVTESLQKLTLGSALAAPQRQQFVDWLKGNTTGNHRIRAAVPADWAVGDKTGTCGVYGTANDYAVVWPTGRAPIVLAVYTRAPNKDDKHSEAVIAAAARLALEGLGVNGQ
Procedure, shortened: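 Readout: nitrocefin hydrolysis, A490 recorded every 10 sec over 10 min. Enzyme and inhibitor (varied concentrations) preincubated 10 min, RT, in reaction buffer before substrate addition.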

PAM1154/KPC-2 = assay: Biapenem potentiation in PAM1154/KPC-2 (MexAB-OprM lacking); format: cell-based, Pseudomonas aeruginosa
Protocol: Efflux of BLIs from Pseudomonas aeruginosa by the MexAB-OprM efflux pump was also evaluated. […] Due to expression of KPC-2 both strains became resistant to biapenem. […] Potency of BLIs to potentiate biapenem in these strains was determined. […] The ratio of MPC64 values for each BLI in PAM1032/KPC-2 (efflux proficient) and PAM1154/KPC-2 (efflux deficient) was determined to generate the Efflux Index (EI).

Trypsin = biological target: T1, Trypsin (Bos taurus, UniProt P00760); assay: Serine protease inhibition: trypsin; format: biochemical, mammalian; conditions: Table 8A, class symbols; read-out: IC50 Trypsin
T1 construct: purchased Calbiochem 6502
T1 sequence (P00760 24-246): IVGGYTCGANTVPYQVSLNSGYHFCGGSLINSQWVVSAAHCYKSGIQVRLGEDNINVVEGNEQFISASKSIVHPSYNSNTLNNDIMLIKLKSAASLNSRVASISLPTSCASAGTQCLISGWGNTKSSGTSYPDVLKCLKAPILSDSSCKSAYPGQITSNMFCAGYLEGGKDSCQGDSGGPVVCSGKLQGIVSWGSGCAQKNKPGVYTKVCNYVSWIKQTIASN
Protocol: (§1) The effect of selected BLIs on the enzymatic activity of some common mammalian serine proteases was evaluated.
(§2) 50 μl of the diluted enzyme was mixed with 50 μl of inhibitor at various concentrations and 50 μl of corresponding buffer (Table 7). Reaction mixtures were incubated for 10 min at 37° C. Subsequently, 50 μl of corresponding substrate (Table 7) was added and absorbance or fluorescence was monitored for 30 min on SpectraMax M2 plate reader (Molecular Devices). 4-(2-Aminoethyl)benzenesulfonyl fluoride hydrochloride (AEBSF) and leupeptin were used as positive controls. Rates of reaction were calculated and presented relative to “no treatment” control.

Urokinase = biological target: T2, Urokinase (Homo sapiens, UniProt P00749); assay: Serine protease inhibition: urokinase; format: biochemical, mammalian; conditions: Table 8A, class symbols; read-out: IC50 Urokinase
T2 construct: purchased Calbiochem 672112
Protocol: as §1, §2

Chymase = biological target: T3, Chymase (Homo sapiens, UniProt P23946); assay: Serine protease inhibition: chymase; format: biochemical, mammalian; conditions: Table 8A, class symbols; read-out: IC50 Chymase
T3 construct: purchased Enzo Lifescience BML-SE281
T3 sequence (P23946 22-247): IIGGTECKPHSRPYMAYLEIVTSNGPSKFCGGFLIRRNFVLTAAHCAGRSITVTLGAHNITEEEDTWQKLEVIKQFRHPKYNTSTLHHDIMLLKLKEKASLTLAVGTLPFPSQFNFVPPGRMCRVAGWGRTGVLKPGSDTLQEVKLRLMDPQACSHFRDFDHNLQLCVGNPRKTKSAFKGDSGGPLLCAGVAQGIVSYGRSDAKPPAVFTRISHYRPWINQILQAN
Procedure, shortened: (§3)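 Inhibitors at several concentrations are preincubated with each protease for 10 min at 37° C before substrate is added, and reaction rates over 30 min are compared with an untreated control.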

Neutrophil elastase = biological target: T4, Neutrophil elastase (Homo sapiens, UniProt P08246); assay: Serine protease inhibition: neutrophil elastase; format: biochemical, mammalian; conditions: Table 8B; read-out: IC50 Neutrophil elastase
T4 construct: purchased Calbiochem 324681
T4 sequence (P08246 30-267): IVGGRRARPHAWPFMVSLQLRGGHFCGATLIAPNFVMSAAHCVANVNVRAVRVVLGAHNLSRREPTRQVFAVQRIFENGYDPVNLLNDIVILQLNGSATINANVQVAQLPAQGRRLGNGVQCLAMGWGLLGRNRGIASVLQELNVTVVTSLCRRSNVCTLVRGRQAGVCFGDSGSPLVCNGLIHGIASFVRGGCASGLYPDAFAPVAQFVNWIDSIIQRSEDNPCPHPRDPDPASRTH
Procedure, shortened: as §3

CathepsinA = biological target: T5, CathepsinA (Homo sapiens, UniProt P10619); assay: Serine protease inhibition: cathepsin A; format: biochemical, mammalian; conditions: Table 8B; read-out: IC50 CathepsinA
T5 construct: purchased R&D Systems 1049-SE
T5 sequence (P10619 29-480): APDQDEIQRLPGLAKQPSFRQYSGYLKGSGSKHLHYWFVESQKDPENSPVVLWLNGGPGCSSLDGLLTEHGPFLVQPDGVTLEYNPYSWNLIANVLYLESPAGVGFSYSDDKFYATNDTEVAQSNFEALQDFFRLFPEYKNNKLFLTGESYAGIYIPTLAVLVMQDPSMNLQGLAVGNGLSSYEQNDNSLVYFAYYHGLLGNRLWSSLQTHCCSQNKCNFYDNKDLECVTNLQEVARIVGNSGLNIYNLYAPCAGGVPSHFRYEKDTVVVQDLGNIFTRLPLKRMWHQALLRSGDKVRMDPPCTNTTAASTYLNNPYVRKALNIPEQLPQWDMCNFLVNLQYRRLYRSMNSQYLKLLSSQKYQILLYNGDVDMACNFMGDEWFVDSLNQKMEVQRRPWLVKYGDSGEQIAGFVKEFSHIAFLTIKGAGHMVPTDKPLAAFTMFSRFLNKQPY
Procedure, shortened: as §3

CathepsinG = biological target: T6, CathepsinG (Homo sapiens, UniProt P08311); assay: Serine protease inhibition: cathepsin G; format: biochemical, mammalian; conditions: Table 8B
T6 construct: purchased EMD Millipore 219373
T6 sequence (P08311 21-244): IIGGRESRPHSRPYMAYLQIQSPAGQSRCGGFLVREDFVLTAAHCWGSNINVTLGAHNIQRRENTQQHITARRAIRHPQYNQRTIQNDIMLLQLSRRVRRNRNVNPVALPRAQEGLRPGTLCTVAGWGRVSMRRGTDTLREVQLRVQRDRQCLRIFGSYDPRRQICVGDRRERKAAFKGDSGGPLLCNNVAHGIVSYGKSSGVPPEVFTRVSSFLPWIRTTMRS
Procedure, shortened: as §3

[1] = biological target: T7, Dipeptidyl peptidase 7 (DPP7) (Homo sapiens, UniProt Q9UHL4); assay: Serine protease inhibition: DPP7; format: biochemical, mammalian; conditions: Table 8B; read-out: IC50 DPP7
T7 construct: purchased R&D Systems 3438-SE
Protocol: as §1, §2

[2] = biological target: T8, Dipeptidyl peptidase 8 (DPP8) (Homo sapiens, UniProt Q6V1X1); assay: Serine protease inhibition: DPP8; format: biochemical, mammalian; conditions: Table 8B; read-out: IC50 DPP8
T8 construct: purchased BPS Bioscience 80080
T8 sequence (Q6V1X1 whole entry): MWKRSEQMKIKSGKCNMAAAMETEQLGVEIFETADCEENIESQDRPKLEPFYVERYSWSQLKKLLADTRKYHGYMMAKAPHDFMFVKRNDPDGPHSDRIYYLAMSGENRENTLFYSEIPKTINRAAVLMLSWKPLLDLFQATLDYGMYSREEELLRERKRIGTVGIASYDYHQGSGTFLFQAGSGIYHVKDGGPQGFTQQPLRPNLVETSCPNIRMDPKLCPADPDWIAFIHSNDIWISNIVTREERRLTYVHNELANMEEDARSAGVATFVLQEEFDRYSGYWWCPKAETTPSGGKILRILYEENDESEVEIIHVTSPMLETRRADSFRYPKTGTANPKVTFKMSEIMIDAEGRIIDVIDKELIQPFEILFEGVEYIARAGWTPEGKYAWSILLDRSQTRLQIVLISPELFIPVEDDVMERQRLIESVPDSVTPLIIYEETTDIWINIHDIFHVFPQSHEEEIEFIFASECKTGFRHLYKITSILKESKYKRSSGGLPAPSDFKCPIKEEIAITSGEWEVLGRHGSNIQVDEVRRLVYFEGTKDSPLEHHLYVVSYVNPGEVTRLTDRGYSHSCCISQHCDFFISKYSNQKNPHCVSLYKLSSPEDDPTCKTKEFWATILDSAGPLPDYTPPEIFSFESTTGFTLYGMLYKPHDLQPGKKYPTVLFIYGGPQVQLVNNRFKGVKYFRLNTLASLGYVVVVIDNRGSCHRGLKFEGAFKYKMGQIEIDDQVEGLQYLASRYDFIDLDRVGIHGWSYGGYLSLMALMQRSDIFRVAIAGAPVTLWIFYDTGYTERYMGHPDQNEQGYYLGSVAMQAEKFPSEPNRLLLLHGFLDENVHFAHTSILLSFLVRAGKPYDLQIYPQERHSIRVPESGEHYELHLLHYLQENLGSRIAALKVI
Protocol: as §1, §2

KP1009 (CTX-M-15) = assay: Potentiation of tigemonam, strain KP1009; conditions: minimum BLI concentration inhibiting growth with 4 μg/mL tigemonam

SMILES	AZT MPC4 CTX-M-14 KP1005 (KP1005 (CTX-M-14))	AZT MPC4 SHV-5 ec308 (ec308 (SHV-5))	TIG MPC4 CMY-6 EC1010 (EC1010 (CMY-6))	Ki (KPC-2) [µM]	PAM1154/KPC-2 Biapenem MPC64 (PAM1154/KPC-2)	IC50 (Trypsin) [µM]	IC50 (Urokinase) [µM]	IC50 (Chymase) [µM]	IC50 (Neutrophil elastase) [µM]	IC50 (CathepsinA) [µM]	IC50 (CathepsinG) [µM]	IC50 [1] [µM]	IC50 [2] [µM]	TIG MPC4 CTX-M-15 KP1009 (KP1009 (CTX-M-15))
O=C(Cc1cccs1)N[C@H]1Cc2cccc(C(=O)O)c2OB1O [CPD A, reference compound]	Y (key: X = MIC of less than 1 μg/mL; Y = MIC of 1 μg/mL to 10 μg/mL; Z = MIC of greater than 10 μg/mL)	X (X = MIC of less than 1 μg/mL)	X (key: X = MIC of less than 1 μg/mL; Y = MIC of 1 μg/mL to 10 μg/mL; Z = MIC of greater than 10 μg/mL)	> 0.01	X (key: X = Less than 10; Y = 10 to 40; Z Greater than 40)	> 800	> 800	< 300	15 to 500	< 15	< 15	> 500	15 to 500	Y (Y = MIC of 1 μg/mL to 10 μg/mL)
Nc1nnc(SCC(=O)N[C@H]2Cc3cccc(C(=O)O)c3OB2O)s1 [Compound 5, (R)-3-(2-(5-amino-1,3,4-thiadiazol-2-ylthio)acetamido)-2-hydroxy-3,4-dihydro-2H-benzo[e][1,2]oxaborinine-8-carboxylic acid]	X (key: X = MIC of less than 1 μg/mL; Y = MIC of 1 μg/mL to 10 μg/mL; Z = MIC of greater than 10 μg/mL)	X (X = MIC of less than 1 μg/mL)	X (key: X = MIC of less than 1 μg/mL; Y = MIC of 1 μg/mL to 10 μg/mL; Z = MIC of greater than 10 μg/mL)	> 0.01	X (key: X = Less than 10; Y = 10 to 40; Z Greater than 40)	> 800	> 800	300 to 800	> 500	15 to 500	< 15	> 500	15 to 500	X (X = MIC of less than 1 μg/mL)
CSC(=O)N[C@H]1Cc2cccc(C(=O)O)c2OB1O [Compound 11, (R)-2-hydroxy-3-(methylthiocarbonylamino)-3,4-dihydro-2H-benzo[e][1,2]oxaborinine-8-carboxylic acid]	Y (key: X = MIC of less than 1 μg/mL; Y = MIC of 1 μg/mL to 10 μg/mL; Z = MIC of greater than 10 μg/mL)	X (X = MIC of less than 1 μg/mL)	X (key: X = MIC of less than 1 μg/mL; Y = MIC of 1 μg/mL to 10 μg/mL; Z = MIC of greater than 10 μg/mL)	> 0.01	X (key: X = Less than 10; Y = 10 to 40; Z Greater than 40)	> 800	> 800	> 800	> 500	15 to 500	15 to 500	> 500	> 500	Y (Y = MIC of 1 μg/mL to 10 μg/mL)
O=C(CSc1nncs1)N[C@H]1Cc2cccc(C(=O)O)c2OB1O [Compound 7, (R)-3-(2-(1,3,4-thiadiazol-2-ylthio)acetamido)-2-hydroxy-3,4-dihydro-2H-benzo[e][1,2]oxaborinine-8-carboxylic acid]	X (key: X = MIC of less than 1 μg/mL; Y = MIC of 1 μg/mL to 10 μg/mL; Z = MIC of greater than 10 μg/mL)	X (X = MIC of less than 1 μg/mL)	X (key: X = MIC of less than 1 μg/mL; Y = MIC of 1 μg/mL to 10 μg/mL; Z = MIC of greater than 10 μg/mL)	> 0.01	X (key: X = Less than 10; Y = 10 to 40; Z Greater than 40)	> 800	> 800	> 800	> 500	15 to 500	15 to 500	> 500	15 to 500	X (X = MIC of less than 1 μg/mL)
O=CN[C@H]1Cc2cccc(C(=O)O)c2OB1O [Compound 4, (R)-3-formamido-2-hydroxy-3,4-dihydro-2H-benzo[e][1,2]oxaborinine-8-carboxylic acid]	Y (key: X = MIC of less than 1 μg/mL; Y = MIC of 1 μg/mL to 10 μg/mL; Z = MIC of greater than 10 μg/mL)	Y (Y = MIC of 1 μg/mL to 10 μg/mL)	X (key: X = MIC of less than 1 μg/mL; Y = MIC of 1 μg/mL to 10 μg/mL; Z = MIC of greater than 10 μg/mL)	–	X (key: X = Less than 10; Y = 10 to 40; Z Greater than 40)	> 800	> 800	> 800	> 500	> 500	15 to 500	> 500	> 500	Y (Y = MIC of 1 μg/mL to 10 μg/mL)

From patent US9101638B2, “Boronic acid derivatives and therapeutic uses thereof” (Rempex Pharmaceuticals, Inc., priority 2013, dated 2015)
